The values below come from patent US6596726B1, “Tricyclic compounds capable of inhibiting tyrosine kinases of the epidermal growth factor receptor family” (Warner Lambert Company, priority 1994, dated 2003).

Counter-ions that a name gives are not always drawn. Like-named read-outs stand apart in the source and are kept apart here. Some results are limits rather than exact numbers.

In assay [1] the target is T1, Human EGF receptor tyrosine kinase (Homo sapiens, UniProt P00533).
T1 construct: Human EGF receptor tyrosine kinase was isolated from A431 human epidermoid carcinoma cells which overexpress EGF receptor; endogenous in cells; host or cells: A431 human epidermoid carcinoma cells; purified on wheat germ agglutinin sepharose
In words: EGF receptor tyrosine kinase inhibition (phosphorylation of PLC-gamma 1 derived peptide). Format: biochemical. The procedure: Purification of Epidermal Growth Factor Receptor Tyrosine Kinase—Human EGF receptor tyrosine kinase was isolated from A431 human epidermoid carcinoma cells which overexpress EGF receptor by the following methods. Cells were grown in roller bottles in 50% Delbuco's Modified Eagle and 50% HAM F-12 nutrient media (Gibco) containing 10% fetal calf serum. Approximately 10^9 cells were lysed in two volumes of buffer containing 20 mM 2-(4N-[2-hydroxyethyl]piperazin-1-yl)ethanesulfonic acid (hepes), pH 7.4, 5 mM ethylene glycol bis(2-aminoethyl ether) N,N,N′,N′-tetraacetic acid, 1% Triton X-100, 10% glycerol, 0.1 mM sodium orthovanadate, 5 mM sodium fluoride, 4 mM pyrophosphate, 4 mM benzamide, 1 mM dithiothreitol, 80 μg/mL aprotinin, 40 μg/mL leupeptin and 1 mM phenylmethylsulfonyl fluoride. After centrifugation at 25,000×g for 10 minutes, the supernatant was equilibrated for 2 h at 4° C. with 10 mL of wheat germ agglutinin sepharose that was previously equilibrated with 50 mM Hepes, 10% glycerol, 0.1% Triton X-100 and 150 mM NaCl, pH 7.5, (equilibration buffer). Contaminating proteins were washed from the resin with 1 M NaCl in equilibration buffer, and the enzyme was eluted with 0.5 M N-acetyl-1-D-glucosamine in equilibration buffer, followed by 1 mM urea. The enzyme was eluted with 0.1 mg/ml EGF.
The reaction was terminated by the addition of 2 mL of 75 mM phosphoric acid and passed through a 2.5 cm phosphocellulose filter disc to bind the peptide. The filter was washed five times with 75 mM phosphoric acid and placed in a vial along with 5 mL of scintillation fluid (Ready gel Beckman).

For assay [2], the target named is T2, EGF receptor autophosphorylation in A431 human epidermoid carcinoma cells (Homo sapiens, UniProt P00533).
T2 construct: endogenous in cells; host or cells: A431 human epidermoid carcinoma cells (ATCC)
The assay can be described thus: Inhibition of EGF-induced autophosphorylation in A431 epidermoid carcinoma cells. The format is cell-based. The procedure: Cells were grown to 100% confluency in 100 mm Petrie dishes (Corning). After the cells were treated for 5 minutes with either EGF (epidermal growth factor), PDGF, or bFGF (basic fibroblast growth factor) (20 ng/ml) or 1 ml of conditioned media from MDA-MB-231 cells, the media was removed and the monolayer scraped into 1 ml of ice cold lysis buffer (50 mM Hepes, pH 7.5, 150 mM NaCl, 10% glycerol, 1% triton X-100, 1 mM EDTA, 1 mM EGTA, 10 mM sodium pyrophosphate, 30 mM p-nitrophenyl phosphate, 1 mM orthovanadate, 50 mM sodium fluoride, 1 mM phenylmethylsulfonylfluoride, 10 μg/ml of aprotinin, and 10 μg/ml of leupeptin). The lysate was transferred to a microfuge tube (small centrifuge that holds 1-2 ml plastic centrifuge tubes), allowed to sit on ice 15 minutes and centrifuged 5 minutes at 10,000×g. The supernatant was transferred to a clean microfuge tube and 5 μg of antibody was added to designated samples. The tubes were rotated for 2 hours at 4° C. after which 25 μl of protein A sepharose was added and then rotation continued for at least 2 more hours. The protein A separose was washed 5 times with 50 mM Hepes, pH 7.5, 150 mM NaCl, 10% glycerol and 0.02% sodium azide. […] The extract were transferred to a microfuge tube and heated to 100° C. for 5 minutes. […] Proteins in the gel were electrophoretically transferred to nitrocellulose and the membrane was washed once in 10 mM Tris buffer, pH 7.2, 150 mM NaCl, 0.01% Azide (TNA) and blocked overnight in TNA containing 5% bovine serum albumin and 1% ovalbumin (blocking buffer). The membrane was blotted for 2 hours with the primary antibody (1 μg/ml in blocking buffer) and then washed 2 times sequentially in TNA, TNA containing 0.05% Tween-20 and 0.05% Nonidet P-40 (commercially available detergent) and TNA.
(§1) Inhibition of EGF-Induced Autophosphorylation in A431 Epidermoid Carcinoma Cells and Conditioned Media-Induced Autophosphorylation in SK-BR-3 Breast Tumor Cells by Compounds of the Current Invention
The numbers to the left of gels indicate the positions of molecular weight standards in kiloDaltons.

Assay [3] deals with erbB-2, 3, 4 autophosphorylation in SK-BR-3 breast tumor cells. In words: Inhibition of conditioned media-induced autophosphorylation in SK-BR-3 breast tumor cells. Format: cell-based, human. The note with it: SK-BR-3 cells, read-out: SKBR-3 IC50. The procedure:
Cells were grown to 100% confluency in 100 mm Petrie dishes (Corning). After the cells were treated for 5 minutes with either EGF (epidermal growth factor), PDGF, or bFGF (basic fibroblast growth factor) (20 ng/ml) or 1 ml of conditioned media from MDA-MB-231 cells, the media was removed and the monolayer scraped into 1 ml of ice cold lysis buffer (50 mM Hepes, pH 7.5, 150 mM NaCl, 10% glycerol, 1% triton X-100, 1 mM EDTA, 1 mM EGTA, 10 mM sodium pyrophosphate, 30 mM p-nitrophenyl phosphate, 1 mM orthovanadate, 50 mM sodium fluoride, 1 mM phenylmethylsulfonylfluoride, 10 μg/ml of aprotinin, and 10 μg/ml of leupeptin). The lysate was transferred to a microfuge tube (small centrifuge that holds 1-2 ml plastic centrifuge tubes), allowed to sit on ice 15 minutes and centrifuged 5 minutes at 10,000×g. The supernatant was transferred to a clean microfuge tube and 5 μg of antibody was added to designated samples. The tubes were rotated for 2 hours at 4° C. after which 25 μl of protein A sepharose was added and then rotation continued for at least 2 more hours. The protein A separose was washed 5 times with 50 mM Hepes, pH 7.5, 150 mM NaCl, 10% glycerol and 0.02% sodium azide. The precipitates were resuspended with 30 μl of Laemlli buffer (Laemmli, NATURE, […], pp. 680-685, 1970), heated to 100° C. for 5 minutes and centrifuged to obtain the supernatant. Whole cell extracts were made by scraping cells grown in the wells of 6 well plates into 0.2 ml of boiling Laemmli buffer. The extract were transferred to a microfuge tube and heated to 100° C. for 5 minutes. The entire supernatant from the immunoprecipitation or 35 μl of the whole cell extract was loaded onto a polyacrylamide gel (4-20%) and electrophoresis carried out by the method of Laemlli (Laemmli, 1970). Proteins in the gel were electrophoretically transferred to nitrocellulose and the membrane was washed once in 10 mM Tris buffer, pH 7.2, 150 mM NaCl, 0.01% Azide (TNA) and blocked overnight in TNA containing 5% bovine serum albumin and 1% ovalbumin (blocking buffer). The membrane was blotted for 2 hours with the primary antibody (1 μg/ml in blocking buffer) and then washed 2 times sequentially in TNA, TNA containing 0.05% Tween-20 and 0.05% Nonidet P-40 (commercially available detergent) and TNA. The membranes were then incubated for 2 hours in blocking buffer containing 0.1 μCi/ml of [^125I] protein A and then washed again as above. After the blots were dry they were loaded into a film cassette and exposed to X-AR X-ray film for 1-7 days. Protein A is a bacterial protein that specifically bonds certain IgG subtypes and is useful in binding to and isolating antibody-antigen complexes.
as §1

Setting [4] is: EGF Receptor Tyrosine Kinase Inhibition, Table 1, values in nM, read-out: IC50 in EGFR.
Where [5] appears, read: enzyme value repeated in the autophosphorylation table, read-out: EGFR IC50.

As for `Brc1cccc(Nc2ncnc3cc4ccccc4cc23)c1` [Example 1, 4-(3-bromoanilino)benzo[q]quinazoline hydrochloride], the figures for the IC50 in assay [1], in assay [1] (read-out: EGFR IC50 nM) and in assay [2] were less than 0.1 nM, less than 0.1 nM and 17 nM, respectively.
On to “4-(3-Bromoanilino)imidazolo[4,5-h]quinazoline hydrochloride [Example 11]”, for which, in assay [1] (read-out: IC50 in EGFR), the IC50 came out at 272 nM.
Turning to `O=[N+]([O-])c1ccc2sc3c(Nc4cccc(Br)c4)ncnc3c2c1` [Example 16, 4-(3-Bromoanilino)-8-nitrobenzo[b]thieno[3,2-d]pyrimidine], in assay [1] (setting [4]), the concentration for half-maximal inhibition (IC50) stood at 12.3 nM.
With “4-(3-Bromoanilino)triazolo[4,5-g]quinazoline hydrochloride [Example 7]”, the IC50 in assay [1] (setting [4]) is 4.1 nM.
For `Clc1cccc(Nc2ncnc3c2sc2ncccc23)c1` [Example 20, 4-(3-Chloroanilino)pyrido[3′, 2′:4,5]thieno[3,2-d]pyrimidine], the IC50 in assay [1] (EGF Receptor Tyrosine Kinase Inhibition, Table 1, values printed in μM, read-out: IC50 in EGFR) came out at 1300 nM.
`COc1ccc2[nH]c3ncnc(Nc4cccc(Br)c4)c3c2c1` [Example 31, 4-(3-Bromoanilino)6-methoxyindolo[2,3-d]pyrimidine]: in assay [1], the half-inhibitory concentration (IC50) was found to be 220 nM.
Take `COc1cccc2sc3c(Nc4cccc(Br)c4)ncnc3c12.Cl` [Example 18, 4-(3-Bromoanilino)-9-methoxybenzo[b]thieno[3,2-d]pyrimidine hydrochloride.]: the “EGFR inhibition at fixed concentration” value in assay [1] (@ 10 nM) worked out at 36% @ 10.
For `Cn1cnc2cc3c(Nc4cccc(Br)c4)ncnc3cc21` [Example 8, 4-(3-Bromoanilino)-8,N-methylimidazolo[4,5-g]quinazoline], the IC50 in assay [3] stood at 10 nM.
As for `Brc1cccc(Nc2ncnc3c2[nH]c2ccccc23)c1` [Example 25, 4-(3-Bromoanilino)indolo[3,2-d]pyrimidine hydrochloride], in assay [3], the half-inhibitory concentration (IC50) is 1000 nM.
Regarding `C[C@@H](Nc1ncnc2cc3ccccc3cc12)c1ccccc1` [Example 2, 4-([R]-1-Phenylethylamino)benzo[g]quinazoline hydrochloride], the IC50 in assay [1] (setting [4]) is 21 nM.
With `Brc1cccc(Nc2ncnc3c2sc2ncsc23)c1` [Example 19, 4-(3-Bromoanilino)thiazolo[4′,5′; 4,5]thieno[3,2-d]pyrimidine], in assay [3], the IC50 was approximately 1500 nM.
On to `c1ccc(CNc2ncnc3c2[nH]c2ccccc23)cc1` [Example 23, 4-Benzylaminoindolo[3,2-d]pyrimidine], for which the IC50 in assay [1] (setting [4]) was 460 nM.
Still for that read-out and setting: as for `Nc1nc(Nc2cccc(Br)c2)c2c(n1)[nH]c1ccccc12` [Example 32, 2-Amino-4-(3-bromoanilino)pyrimido[2,3-d]indole], the figure is 160 nM; as for `C[C@@H](Nc1ncnc2c1sc1ccccc12)c1ccccc1` [Example 14, 4-([R]-1-Phenylethylamino)benzothieno[3,2-d]pyrimidine], 538 nM.
With `Cn1c2ccccc2c2c(Nc3cccc(Br)c3)ncnc21` [Example 29, 4-(3-Bromoanilino)-9,N-methylindolo[2,3-d]pyrimidine.], the IC50 in assay [1] (setting [4]) was 732 nM; in assay [2], 109 nM; in assay [3] it was 1100 nM.
Compound `Brc1cccc(Nc2ncnc3cc4[nH]ccc4cc23)c1` [Example 3, 4-(3-Bromoanilino)pyrrolo[3,2-g]quinazoline] showed an IC50 in assay [1] of 0.76 nM.
As for `Brc1cccc(Nc2ncnc3c2sc2ccccc23)c1` [Example 15, 4-(3-Bromoanilino)benzothieno[3,2-d]pyrimidine], the IC50 in assay [1] (setting [4]) came to 1.8 nM; in assay [1] (setting [5]), 1.8 nM; in assay [2], 170 nM.
For `Brc1cccc(Nc2ncnc3[nH]c4ccccc4c23)c1` [Example 28, 4-(3-Bromoanilino)indolo[2,3-d]pyrimidine hydrochloride], the concentration for half-maximal inhibition (IC50) was 31 nM in assay [1] (setting [4]), 31 nM in assay [1] (setting [5]), 630 nM in assay [2] and 10 nM in assay [3].
`Cn1cnc2cc3ncnc(Nc4cccc(Br)c4)c3cc21` [Example 9, 4-(3-Bromoanilino)-6,N-methylimidazolo[4,5-g]quinazoline] had an IC50 in assay [1] of approximately 0.01 nM.
In the case of `Brc1cccc(Nc2ncnc3cc4nccnc4cc23)c1` [Example 10, 4-(3-Bromoanilino)pyrazino[2,3-g]quinazoline], the IC50 in assay [1] (read-out: EGFR IC50) is 1.7 nM; in assay [1] (read-out: IC50 in EGFR), 1.7 nM; in assay [2], 31 nM; in assay [3], approximately 700 nM.
Consider `Brc1cccc(Nc2ncnc3cc4ncoc4cc23)c1` [Example 5], for which the half-inhibitory concentration (IC50) in assay [1] (EGF Receptor Tyrosine Kinase Inhibition, Table 1, values in pM, read-out: IC50 in EGFR) is 0.075 nM.
Take `c1ccc(Nc2ncnc3[nH]c4ccccc4c23)cc1` [Example 27, 4-Anilinoindolo[2,3-d]pyrimidine]: the IC50 in assay [1] (setting [4]) is 264 nM.
As to `Brc1cccc(Nc2ncnc3c2oc2ccccc23)c1` [Example 34, 4-(3-Bromoanilino)benzofurano[3,2-d]pyrimidine], the IC50 in assay [1] was determined as 740 nM.
Still for that read-out and setting: as for `Brc1cccc(Nc2ncnc3c2sc2ncccc23)c1` [Example 21, 4-(3-bromoanilino)pyrido[3′, 2′; 4,5]thieno[3,2-d]pyrimidine], the figure is 732 nM.

As a reminder, the IC50 is the concentration needed to halve the response being measured.
